Reference: the supplement of paper PMC10307832

Experiments:
Assay in all cases: relative viability (nuclei count vs DMSO), 5 days (fraction); higher = more cells survive
EKVX = tested on: EKVX
In short: (§1)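 After 5 days of treatment, lung cancer cells in 1536-well plates were fixed and stained in a single step (final 0.05% Triton X-100, 1% formaldehyde, 1 ug/ml Hoechst) and their nuclei counted on 4× images. Treatment had been applied by pin tool the day after seeding as one drug alone or as a fixed anchor-drug dose with five library-drug doses (not always all listed) in √10 steps. Relative viability is the nuclei count of treated wells divided by that of vehicle wells, and values are medians of duplicate plates.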

LCLC-97TM1 = tested on: LCLC-97TM1
In short: as §1

NCI-H647 = tested on: NCI-H647
In short: as §1

NCI-H2126 = tested on: NCI-H2126
In short: as §1

EPLC-272H = tested on: EPLC-272H
In short: as §1

LU99A = tested on: LU99A
In short: as §1

BEN = tested on: BEN
In short: as §1

NCI-H1975 = tested on: NCI-H1975
In short: as §1

NCI-H1395 = tested on: NCI-H1395
In short: as §1

NCI-H1666 = tested on: NCI-H1666
In short: as §1

NCI-H2342 = tested on: NCI-H2342
In short: as §1

NCI-H2087 = tested on: NCI-H2087
In short: as §1

COR-L 105 = tested on: COR-L 105
In short: as §1

NCI-H1437 = tested on: NCI-H1437
In short: as §1

LOU-NH91 = tested on: LOU-NH91
In short: as §1

NCI-H2085 = tested on: NCI-H2085
In short: as §1

H3255 = tested on: H3255
In short: as §1

HOP-62 = tested on: HOP-62
In short: as §1

201T = tested on: 201T
In short: as §1

NCI-H358 = tested on: NCI-H358
In short: as §1

SW 1573 = tested on: SW 1573
In short: as §1

HCC-827 = tested on: HCC-827
In short: as §1

PC-3 [JPC-3] = tested on: PC-3 [JPC-3]
In short: as §1

In the case of `Clc1ccc(Nc2nnc(Cc3ccncc3)c3ccccc23)cc1` [Vatalanib] + COc1cc2c(Oc3ccc(NC(=O)C4(C(=O)Nc5ccc(F)cc5)CC4)cc3F)ccnc2cc1OCCCN1CCOCC1 [Foretinib] (partner 0.25 µM), the relative viability (EKVX; first compound 0.04 µM) is reported as 0.836, the relative viability (EKVX; first compound 0.1265 µM) is reported as 0.838 and the relative viability (EKVX; first compound 0.4 µM) is reported as 0.551. For the same molecule, the relative viability (EKVX; first compound 4 µM) was 0.727, the relative viability (LCLC-97TM1; first compound 0.04 µM) was 0.975 and the relative viability (LCLC-97TM1; first compound 0.1265 µM) was 0.833. For the same molecule, the relative viability (LCLC-97TM1; first compound 0.4 µM) was 1.01, the relative viability (LCLC-97TM1; first compound 1.265 µM) was 0.949 and the relative viability (LCLC-97TM1; first compound 4 µM) was 0.835. For the same molecule, the relative viability (NCI-H647; first compound 0.04 µM) was 1.12, the relative viability (NCI-H647; first compound 0.1265 µM) was 1.2 and the relative viability (NCI-H647; first compound 0.4 µM) was 1.28. For the same molecule, the relative viability (NCI-H647; first compound 1.265 µM) was 1.18, the relative viability (NCI-H647; first compound 4 µM) was 1.1 and the relative viability (NCI-H2126; first compound 0.04 µM) was 1.15. The relative viability (NCI-H2126; first compound 0.1265 µM) was 1.23, the relative viability (NCI-H2126; first compound 0.4 µM) was 1.25 and the relative viability (NCI-H2126; first compound 1.265 µM) was 1.1. The relative viability (NCI-H2126; first compound 4 µM) was 1.12, the relative viability (EPLC-272H; first compound 0.04 µM) was 0.645 and the relative viability (EPLC-272H; first compound 0.1265 µM) was 0.711. For the same molecule, the relative viability (EPLC-272H; first compound 0.4 µM) was 0.763, the relative viability (EPLC-272H; first compound 1.265 µM) was 0.669 and the relative viability (EPLC-272H; first compound 4 µM) was 0.841. It also gave a relative viability (LU99A; first compound 0.04 µM) of 0.809, a relative viability (LU99A; first compound 0.1265 µM) of 0.842 and a relative viability (LU99A; first compound 0.4 µM) of 0.917. It also gave a relative viability (LU99A; first compound 1.265 µM) of 0.75, a relative viability (LU99A; first compound 4 µM) of 0.848 and a relative viability (BEN; first compound 0.04 µM) of 0.705. It also gave a relative viability (BEN; first compound 0.1265 µM) of 0.526, a relative viability (BEN; first compound 0.4 µM) of 0.845 and a relative viability (BEN; first compound 1.265 µM) of 0.511. It also gave a relative viability (BEN; first compound 4 µM) of 0.696, a relative viability (NCI-H1975; first compound 0.04 µM) of 0.968 and a relative viability (NCI-H1975; first compound 0.1265 µM) of 0.885. The relative viability (NCI-H1975; first compound 0.4 µM) was 0.953, the relative viability (NCI-H1975; first compound 1.265 µM) was 0.866 and the relative viability (NCI-H1975; first compound 4 µM) was 0.832. The relative viability (NCI-H1395; first compound 0.04 µM) was 0.994, the relative viability (NCI-H1395; first compound 0.1265 µM) was 1.1 and the relative viability (NCI-H1395; first compound 0.4 µM) was 1.08. It also gave a relative viability (NCI-H1395; first compound 1.265 µM) of 0.938, a relative viability (NCI-H1395; first compound 4 µM) of 1.02 and a relative viability (NCI-H1666; first compound 0.04 µM) of 1. It also gave a relative viability (NCI-H1666; first compound 0.1265 µM) of 1.02, a relative viability (NCI-H1666; first compound 0.4 µM) of 0.997 and a relative viability (NCI-H1666; first compound 1.265 µM) of 0.962. For the same molecule, the relative viability (NCI-H1666; first compound 4 µM) was 0.925, the relative viability (NCI-H2342; first compound 0.04 µM) was 1.08 and the relative viability (NCI-H2342; first compound 0.1265 µM) was 1.03. For the same molecule, the relative viability (NCI-H2342; first compound 0.4 µM) was 1.08, the relative viability (NCI-H2342; first compound 1.265 µM) was 1.16 and the relative viability (NCI-H2342; first compound 4 µM) was 1.05. For the same molecule, the relative viability (NCI-H2087; first compound 0.04 µM) was 1.15, the relative viability (NCI-H2087; first compound 0.1265 µM) was 1.08 and the relative viability (NCI-H2087; first compound 0.4 µM) was 1.27. It also gave a relative viability (NCI-H2087; first compound 1.265 µM) of 0.958, a relative viability (NCI-H2087; first compound 4 µM) of 1.03 and a relative viability (COR-L 105; first compound 0.04 µM) of 0.885. It also gave a relative viability (COR-L 105; first compound 0.1265 µM) of 1.23, a relative viability (COR-L 105; first compound 0.4 µM) of 1.24 and a relative viability (COR-L 105; first compound 1.265 µM) of 0.785. It also gave a relative viability (COR-L 105; first compound 4 µM) of 1.12, a relative viability (NCI-H1437; first compound 0.04 µM) of 1.25 and a relative viability (NCI-H1437; first compound 0.1265 µM) of 1.27. The relative viability (NCI-H1437; first compound 0.4 µM) was 1.4, the relative viability (NCI-H1437; first compound 1.265 µM) was 1.21 and the relative viability (NCI-H1437; first compound 4 µM) was 1.26. The relative viability (LOU-NH91; first compound 0.04 µM) was 0.887, the relative viability (LOU-NH91; first compound 0.1265 µM) was 0.956 and the relative viability (LOU-NH91; first compound 1.265 µM) was 0.937. For the same molecule, the relative viability (LOU-NH91; first compound 4 µM) was 0.91, the relative viability (NCI-H2085; first compound 0.04 µM) was 1.07 and the relative viability (NCI-H2085; first compound 0.1265 µM) was 0.879. The relative viability (NCI-H2085; first compound 0.4 µM) was 0.854, the relative viability (NCI-H2085; first compound 1.265 µM) was 0.996 and the relative viability (NCI-H2085; first compound 4 µM) was 0.818. The relative viability (H3255; first compound 0.04 µM) was 0.763, the relative viability (H3255; first compound 0.1265 µM) was 0.917 and the relative viability (H3255; first compound 0.4 µM) was 0.64. It also gave a relative viability (H3255; first compound 1.265 µM) of 0.829, a relative viability (H3255; first compound 4 µM) of 0.789 and a relative viability (HOP-62; first compound 0.04 µM) of 1.16. The relative viability (HOP-62; first compound 0.1265 µM) was 1.07, the relative viability (HOP-62; first compound 0.4 µM) was 1.13 and the relative viability (HOP-62; first compound 1.265 µM) was 1.01. It also gave a relative viability (HOP-62; first compound 4 µM) of 1.12, a relative viability (201T; first compound 0.04 µM) of 1.17 and a relative viability (201T; first compound 0.1265 µM) of 0.976. It also gave a relative viability (201T; first compound 0.4 µM) of 1.16, a relative viability (201T; first compound 1.265 µM) of 1.09 and a relative viability (201T; first compound 4 µM) of 0.984. The relative viability (NCI-H358; first compound 0.04 µM) was 1.15, the relative viability (NCI-H358; first compound 0.1265 µM) was 0.568 and the relative viability (NCI-H358; first compound 0.4 µM) was 0.533. The relative viability (NCI-H358; first compound 1.265 µM) was 0.718, the relative viability (NCI-H358; first compound 4 µM) was 0.621 and the relative viability (SW 1573; first compound 0.04 µM) was 0.997. The relative viability (SW 1573; first compound 0.1265 µM) was 0.857, the relative viability (SW 1573; first compound 0.4 µM) was 1.05 and the relative viability (SW 1573; first compound 1.265 µM) was 0.929. For the same molecule, the relative viability (SW 1573; first compound 4 µM) was 0.9, the relative viability (HCC-827; first compound 0.04 µM) was 1.07 and the relative viability (HCC-827; first compound 0.1265 µM) was 1.09. For the same molecule, the relative viability (HCC-827; first compound 0.4 µM) was 0.942, the relative viability (HCC-827; first compound 1.265 µM) was 0.927 and the relative viability (HCC-827; first compound 4 µM) was 1.03. It also gave a relative viability (PC-3 [JPC-3]; first compound 0.04 µM) of 1.05, a relative viability (PC-3 [JPC-3]; first compound 0.1265 µM) of 0.977 and a relative viability (PC-3 [JPC-3]; first compound 0.4 µM) of 1.05. It also gave a relative viability (PC-3 [JPC-3]; first compound 1.265 µM) of 0.987 and a relative viability (PC-3 [JPC-3]; first compound 4 µM) of 1.02.
